The test system of experiment [1] is collagenase. Briefly: Inhibition of release of activated collagenase by IgG-stimulated neutrophils. The class given is cell-based, human. The conditions noted are these: for inhibitory effect on the release of activated collagenase by neutrophils (in words): as shown in Table I; for Inhibition of Activated Neutrophil Collagenase Release, % Inhibition: human neutrophils on IgG coated wells; for inhibitory effect on the release of activated collagenase (in words): at supraphysiological concentrations for those compounds. From the text:
(§1) Whole human blood from normal volunteers was obtained by venipuncture into heparinized syringes. The majority of the red cells were removed by dextran sedimentation and neutrophils were separated by density centrifugation over hypaque ficoll. The neutrophil rich fraction was washed and residual red cells were removed by hypotonic lysis according to the procedure described by Blackburn, W.D. et al., Arthritis Rheum. 30:1006-1014 (1987). The neutrophils so prepared were used in the assays described below and cell viability was assured by determining their ability to exclude typan blue. In each assay the cell viability routinely exceeded 95%.
To assay for inhibition of release of activated collagenase by neutrophils,the following assay was performed. Neutrophil cell suspensions were incubated at 37° C. for 15-30 minutes in the presence of varying concentrations of tenidap or other compound under study. Tenidap was dissolved and diluted in water and added to the cells directly therefrom. Other compounds tested were initially dissolved in 0.1M NaOH and then diluted in water prior to addition to the cells. After the cells had been incubated in the presence of tenidap or other compound under study, the cell suspensions (5 × 10^6 cells/ml, 125 μl/well) were added to IgG coated and bovine serum albumin (BSA) blocked wells of microtiter plates and incubated for 45 minutes at 37° C. As controls, similar incubations were performed in the absence of IgG. Following incubation, the cell suspensions were centrifuged (750 × g) for 5 minutes at 4° C. The supernatants were removed and DFP (diisopropylfluorophosphate) was added to a final concentration of 10^-3 M to inactivate serine proteases.
Then, the collagenase activity in the DFP treated supernatants was determined by incubating, in triplicate, 200 μl aliquots of supernatant with ^3 H-labeled reconstituted type-I collagen fibrils in 7 mm flat bottom tissue culture wells (Linbro®, Cat #76-032-05, Flow Laboratories McLean, Va) as described by Johnson-Wint, B., Anal. Biochem. 104:175-181 (1980). The reconstituted fibrils in each well contained 75 μg of a mixture of ^3 H-labeled and unlabeled collagen with an activity of 7,000 cpm. To determine the total radioactivity potentially released from the fibrils in each experiment, the reconstituted fibrils were also incubated with a mixture of clostridial collagenase (250 mg/ml HBSS (Hank's balanced salt solution, GIBCO, Grand Island, N.Y.)). To maximize sensitivity and specificity of the assay, incubations were performed for eighteen hours in triplicate at 37° C. At the end of the incubation period, the supernatants were aspirated from each well and the radioactivity was determined by counting in a liquid scintillation counter. Greater than 99% of the radioactivity applied to each well was recovered from wells incubated with bacterial collagenase. Average counts per minute released by fibrils incubated with buffer (HBSS) alone were subtracted from the cpm measured in each supernatant. The resulting triplicate values for each supernatant were averaged and divided by the average cpm released by the bacterial collagenase to determine the percent fibril lysis produced by each supernatant. The total activated collagen released during the eighteen hour incubation was then calculated and divided by the incubation time to yield values for the collagenase activity (ng collagen degraded/min) in each supernatant.

For experiment [2], the system named is collagenase. Put plainly: Total collagenase released by IgG-stimulated neutrophils (supernatants activated with mersalyl). The experiment is classed as cell-based, human. The conditions noted are these: supernatants activated with organic mercurial, tenidap concentration not given.
Description: as §1
In parallel experiments, release of total collagenase into the supernatants was determined by activating latent collagenase in the supernatants with 1.0 mM mersalyl (Harris, E.D. and Vater, C.A., Methodology of collagenase research: substrate purification, enzyme activation and purification. Collagenase in Normal Pathological Connective Tissues. Edited by D. E. Woolley, J. M. Evanson, Chichester, John Wiley & Sons, 1980) prior to addition of the supernatants to the radiolabeled collagen fibrils. […]

The next experiment relates to myeloperoxidase. Put plainly: Myeloperoxidase activity assay (ABTS/hydrogen peroxide, absorbance at 412 nm). The class given is biochemical. The settings on record: myeloperoxidase extracted from human neutrophils; varying concentrations of tenidap; figures not given.
Description: as §1
Neutrophils (1.25 × 10^6 /ml, prepared as described above) were incubated for 60 minutes at 37° C. in either BSA or IgG coated tissue culture wells which had been blocked with BSA. Following incubation, the wells were aspirated and the cells were removed by centrifugation. […] Myeloperoxidase activity was then determined by adding 20 μl of the supernatant to 300 μl of 0.2M sodium acetate buffer, pH 4.5, containing 17 mg of 2,2'-azino-di-(3-ethylbenzthiazoline)sulfonic acid and 600 μl of 0.003% hydrogen peroxide. The activity of myeloperoxidase in the supernatant was then determined by the change in absorbance at 412 nm using a spectrophotometer as described by Shindler, J.S. et al., Eur. J. Biochem. 65:325-331 (1976).

The structures appear in SMILES notation.

As for `CC(C)Cc1ccc(C(C)C(=O)O)cc1` (stereo not drawn) [Ibuprofen], in the experiment with collagenase [1], the “inhibitory effect on the release of activated collagenase by neutrophils (in words)” value is “no inhibitory effect”. Besides, the “Inhibition of Activated Neutrophil Collagenase Release, % Inhibition” value (from here on “Inhibition … % Inhibition”) in the experiment on collagenase [1] (peak concentration 175 μM) is recorded as 0%.

As to `COc1ccc2c(c1)c(CC(=O)O)c(C)n2C(=O)c1ccc(Cl)cc1` [Indomethacin], the “inhibitory effect on the release of activated collagenase (in words)” value with collagenase [1] is “some inhibitory effect”. Also, in the experiment on collagenase [1] (peak concentration 2.5 μM), the “Inhibition … % Inhibition” value was 14%.

Regarding `COc1ccc2cc([C@H](C)C(=O)O)ccc2c1` [Naproxen], the “inhibitory effect on the release of activated collagenase by neutrophils (in words)” value in the experiment with collagenase [1] is listed as “no inhibitory effect”. Moreover, in the experiment with collagenase [1] (peak concentration 80 μM), the “Inhibition … % Inhibition” value was 0%.

In the case of `CN1C(C(=O)Nc2ccccn2)=C(O)c2ccccc2S1(=O)=O` [Piroxicam], the “inhibitory effect on the release of activated collagenase (in words)” value with collagenase [1] is on record as “some inhibitory effect”. For the same compound, the “Inhibition … % Inhibition” value in the experiment on collagenase [1] (peak concentration 25 μM) is 18%.

For the compound `NC(=O)N1C(=O)C(C(=O)c2cccs2)c2cc(Cl)ccc21` (stereo not drawn) [Tenidap, 5-chloro-2,3-dihydro-2-oxo-3-(2-thienylcarbonyl)-indole-1-carboxamide], the “inhibition of the release of activated collagenase from neutrophils (in words)” value with collagenase [1] (at clinically relevant concentrations) is listed as “significantly inhibited”. For the same compound, in the experiment on collagenase [1] (peak concentration 87.5 μM), the “Inhibition … % Inhibition” value stood at 64%. The “inhibition of the total amount of collagenase released by neutrophils” value in the experiment on collagenase [2] stood at 22%. The “inhibition of the activity of myeloperoxidase (in words)” value in the experiment with myeloperoxidase is given as “inhibit the activity of myeloperoxidase”.

The values are drawn from US5008283A (Pfizer Inc., priority 1990, dated 1991).
